Among the data in patent US20250204553A1, “FEED AND METHODS FOR CONTROLLING HEARTWORM INFECTIONS IN A MAMMAL” (In the Bowl Animal Health, Inc., priority 2022, published 2025) are heartworms recovered and terminal half-life values, retold here.

In data set [1] the test system is Dirofilaria immitis. Put plainly: Efficacy of moxidectin administered per os to dogs for treatment and control of Dirofilaria immitis. It counts as in vivo. The note with it: all 12 dogs; daily oral 0.8 μg/kg and 1.6 μg/kg up to Day 179; inoculated with 50 L3 D. immitis on Day -28 or Day 0; counted on or after Day 180; expected result.
For data set [2] the following is noted: in vivo; cited from earlier work.
The subject of data set [3] is Dirofilaria immitis. The experiment in a line: Efficacy of monepantel administered per os to dogs for treatment and control of Dirofilaria immitis. It counts as in vivo. The note with it: all 12 dogs; daily oral 0.083 mg/kg and 0.83 mg/kg up to Day 179; inoculated with 50 L3 D. immitis on Day -28 or Day 0; counted on or after Day 180; expected result.

Take `CO/N=C1\C[C@]2(C[C@@H]3C[C@@H](C/C=C(\C)C[C@@H](C)/C=C/C=C4\CO[C@@H]5[C@H](O)C(C)=C[C@@H](C(=O)O3)[C@]45O)O2)O[C@H](/C(C)=C/C(C)C)[C@H]1C` [moxidectin]: the heartworms recovered in the data set on Dirofilaria immitis [1] came out at 0. For the same molecule, the terminal half-life entry in data set [2] is “approximately 13.9 days”.

In the data set on Dirofilaria immitis [3], `C[C@](C#N)(COc1cc(C#N)ccc1C(F)(F)F)NC(=O)c1ccc(SC(F)(F)F)cc1` [monepantel, N-[(2S)-2-cyano-1-[5-cyano-2-(trifluoromethyl)phenoxy]propan-2-yl]-4-(trifluoromethylsulfanyl)benzamide] gave a heartworms recovered of 0.

Regarding ivermectin, in data set [2], the terminal half-life was 43.2 h.
